In patent US20240336567A1, “PESTICIDAL AND HERBICIDAL COMPOUNDS AND METHODS OF USE THEREOF” (AG Plenus Ltd, priority 2021, published 2024):

What was measured:
Arabidopsis thaliana [1] = test: HTPS (high throughput on soil) - Dicot - Post-emergence; type: in vivo; settings: N/A: not active; for Emax: read-out: HTPS - Dicot - Post Max effect; for HTPS - Dicot - Post ED50: from normalized green area
Experimental: (§1) Arabidopsis thaliana seeds were sown in 96 well plates filled with irrigated Sweet sand (10%>clay) that is washed from salts and minerals using tap water. 5-10 seeds were sown in the center of each well. 7-8 days post sowing, at 2 true leaves stage, thinning out was performed to ensure that compound application is done on a single plant per well. The plates were placed in a controlled greenhouse in a random order inside a bath which allows flooding irrigation with tap water supplemented with a fertilizer. Applied compounds were dissolved into a final solution of 50% acetone, 49.9% DDW, 0.1% tween-20. A 96 well plate was used as a stock plate for preparing application solutions for 8 repeats. Each row contained different concentrations per chemical. Maximal concentration for application was 1.5 Kg/Ha and dilution factor is 2.5. Chemical application was performed one day after thinning out in a chemical hood. 5 μL applied on first two true leaves in each well using 12 channel pipettes. Data collection: RGB (red, green, blue) data for green area per well was documented using camera. Data is collected at a few time points during the experiment: one day after thinning and before chemical application, two-, six- or nine-days post application. During the last two documentations, visual phenotyping was performed. Data analysis: Given RGB results and visual phenotype scores, a student t-test conducted to compare between treatment and control performance for continuous data (RGB) and Fisher exact test to analyze the non-continuous data (phenotypic scores). Dose-Response curves are generated for each treatment to infer ED50 and max. inhibition parameters, using treatment's log concentration range as the […] variable and normalized green area. Plate imaging performed at 11 and 18 DAA. RGB data for green area per well was documented and used to extract % inhibition. Dose-Response curves were built for each treatment to infer ED50, ED75 and ED90 parameters, using treatment's log concentration range as the independent variable and normalized green area as the dependent variable. Treatments were compared to controls performance given RGB results and using student's t-test (p-val≤0.05).

[2] = in vitro thermal shift (binding of compound to the target); settings: thermal shift caused by binding of the compound to the (unnamed) target
Arabidopsis thaliana [3] = test: HTPS - Dicot - Pre-emergence; type: in vivo; settings: N/A: not active; for Emax: read-out: HTPS - Dicot - Pre Max effect
Experimental: as §1, with “area. These experiments are conducted similarly except that either Arabidopsis thaliana or Eragrostis teff seeds were sowed (5-10 or 5-7, respectively), plant thinning out was not performed, compound dissolved into a final solution of 50% acetone, 49.9% DDW, compound application was done at 30 μL volume per well directly on sowed soil before plant emergence and data was collected 10 or 7 days after chemical application on dicot or monocot plants, respectively.” for “area.”

Eragrostis teff = test: HTPS - Monocot - Pre-emergence; type: in vivo; settings: N/A: not active; for Emax: read-out: HTPS - Monocot - Pre Max effect
Experimental: as §1, with “area. These experiments are conducted similarly except that either Arabidopsis thaliana or Eragrostis teff seeds were sowed (5-10 or 5-7, respectively), plant thinning out was not performed, compound dissolved into a final solution of 50% acetone, 49.9% DDW, compound application was done at 30 μL volume per well directly on sowed soil before plant emergence and data was collected 10 or 7 days after chemical application on dicot or monocot plants, respectively.” for “area.”

SETVI = test: In-planta LTP pre-emergence, visual phenotype; type: in vivo, Setaria viridis; settings: Setaria viridis, 432 h, monocot, read-out: IG Inhibited growth (% effect)
Experimental: A basic panel of 8 weed species (Table 3) were sowed in 4×4×7 cm plastic pots containing inert sand (Sweet sand), intensively washed using osmosis water. Each specie was sowed in a separate pot. In each pot 10-15 seeds were sowed according to the specie viability. Sowing was performed one day before application. The plants were grown for 21 days in a controlled greenhouse (26±2° C. day 20±2° C. night). Hood irrigation (tap water+Shefer 5:3:8 8 mM) was given at a 50% water content by weight. Compounds were soluble in water (DDW), and commercial herbicide control was soluble in formulation B (Table 4). Application was conducted with an industrial sprayer (TeeJet 6502E nozzle) at a rate of 2 kg/ha and spray volume of […]. Pre-emergence advanced dose response experiment application was conducted at six rates between 1-0.0312 kg/ha and spray volume of […]. Percentage of emergence was evaluated at 15 DAA. Visual phenotyping was recorded using a scale of 0-6 (0: no visible effect, 6: maximum effect) at 18 DAA. All experiments included an untreated control, a solvent control and a positive control (commercial herbicide A.I.). Statistical analysis for visual phenotyping determined by a median value of ≥3.5 and Fisher test (pval≤0.05). Statistical analysis for plant emergence determined by % emergence ≥50 and T test (pval≤0.05), as well as Wilcox test (pval≤0.05).

SMILES | Emax (Arabidopsis thaliana [1]) | HTPS - Dicot - Post ED50 (Arabidopsis thaliana [1]) | in vitro Thermal Shift [2] | Emax (Arabidopsis thaliana [3]) | Emax (Eragrostis teff) | HTPS - Dicot - Pre ED50 (Arabidopsis thaliana [3]) | HTPS - Monocot - Pre ED50 (Eragrostis teff) | pest or weed control at 2000 g/ha (SETVI)
C#CCOC(=O)c1cccc(OCC(C)N)n1 (stereo not shown) [Compound 185] | 100% | 30 g/ha | 10 °C |  |  |  |  | 
NCCNc1ccc(Cl)c(C(=O)O)c1 [Compound 133] | 40% |  | 6 °C | 5% | 0% |  |  | 
CCOC(=O)CCOC(=O)c1cccc(OCC(C)N)n1 (stereo not shown) [Compound 177] | 100% | 27 g/ha | 6 °C |  |  |  |  | 
C[C@H](N)COc1cccc(C(=O)O)c1 [Compound 155] | 100% | 56 g/ha | 13 °C | 100% | 100% | 60 g/ha | 170 g/ha | 
NCCOc1cccc(C(=O)O)c1 [Compound 127] | 100% | 134 g/ha | 9 °C | 100% | 94% | 180 g/ha |  | 
CC(CN)Nc1cccc(C(=O)O)c1 (stereo not shown) [Compound 119] | 33% |  | 7 °C | 22% | 3% |  |  | 
CCOC(=O)COC(=O)c1cccc(OCC(C)N)n1 (stereo not shown) [Compound 179] | 100% | 22 g/ha | 9 °C |  |  |  |  | 
CC(N)COc1ccc(Cl)c(C(=O)O)c1 (stereo not shown) [Compound 107] | 100% | 400 g/ha | 14 °C | 100% | 45% | 127 g/ha | 660 g/ha | 
Cc1ccc(OCCN)cc1C(=O)O [Compound 152] |  |  | 4 °C |  |  |  |  | 
CC(N)CNc1ccc(Cl)c(C(=O)O)c1 (stereo not shown) [Compound 139] |  |  | 9 °C | 100% |  | 256 g/ha |  | 
CCOC(=O)CNC(=O)c1cccc(OCC(C)N)n1 (stereo not shown) [Compound 176] | 100% | 85 g/ha | 2 °C |  |  |  |  | 
CC(N)COc1cccc(C(=O)OCCC(=O)O)n1 (stereo not shown) [Compound 183] | 100% | 17 g/ha |  |  |  |  |  | 
CC(N)CSc1cccc(C(=O)O)c1 (stereo not shown) [Compound 140] | 15% |  | 5 °C | 0% | 33% |  |  | 
COC(=O)CCOC(=O)c1cccc(OCC(C)N)n1 (stereo not shown) [Compound 182] | 100% | 72 g/ha |  |  |  |  |  | 
CCOC(=O)c1cccc(OCC(C)N)c1 (stereo not shown) [Compound 150] |  |  | 6 °C | 100% |  | 150 g/ha |  | 
CCOC(=O)CNC(=O)c1cccc(OCC(C)N)c1 (stereo not shown) [Compound 178] | 100% | 39 g/ha | 1 °C |  |  |  |  | 

SMILES | Emax (Arabidopsis thaliana [1]) | HTPS - Dicot - Post ED50 (Arabidopsis thaliana [1]) | in vitro Thermal Shift [2] | Emax (Arabidopsis thaliana [3]) | Emax (Eragrostis teff) | HTPS - Dicot - Pre ED50 (Arabidopsis thaliana [3]) | HTPS - Monocot - Pre ED50 (Eragrostis teff) | pest or weed control at 2000 g/ha (SETVI)
CC(N)COc1cccc(C(=O)OCC(=O)O)n1 (stereo not shown) [Compound 181] | 100% | 23 g/ha | 14 °C |  |  |  |  | 
COC(=O)c1cccc(OCC(C)N)c1 (stereo not shown) [Compound 110] | 100% | 38 g/ha | 4 °C | 100% |  | 80 g/ha |  | 80%
CC(C)(N)COc1cccc(C(=O)O)c1 [Compound 103] | 100% | 157 g/ha | 8 °C |  |  |  |  | 
CC(N)COc1cc(Cl)c(F)c(C(=O)O)c1 (stereo not shown) [Compound 186] | 100% | 200 g/ha | 16 °C |  |  |  |  | 
CCC(N)COc1cccc(C(=O)O)n1 (stereo not shown) [Compound 168] | 100% | 22 g/ha | 15 °C |  |  |  |  | 
NCCSc1cccc(C(=O)O)c1 [Compound 151] |  |  | 5 °C |  |  |  |  | 
CCCCOC(=O)c1cccc(OCC(C)N)n1 (stereo not shown) [Compound 184] | 100% | 36 g/ha | 5 °C |  |  |  |  | 
COC(=O)c1cccc(OCC(C)N)n1 (stereo not shown) [Compound 218] | 100% | 14 g/ha | 8 °C |  |  |  |  | 
NC1CCCC1Oc1cccc(C(=O)O)n1 (stereo not shown) [Compound 173] | 100% | 463 g/ha |  |  |  |  |  | 
NC1CCCC1Oc1cccc(C(=O)O)c1 (stereo not shown) [Compound 122] | 100% | 19 g/ha | 16 °C |  | 89% |  |  | 
COC(=O)COC(=O)c1cccc(OCC(C)N)n1 (stereo not shown) [Compound 180] | 100% | 13 g/ha | 12 °C |  |  |  |  | 
C[C@@H](N)COc1cccc(C(=O)O)n1 [Compound 174] | 100% | 44 g/ha | 15 °C | 100% |  | 3.8 g/ha |  | 
C[C@H](N)COc1cccc(C(=O)O)n1 [Compound 175] | 100% | 7 g/ha | 15 °C | 100% |  | 3.8 g/ha |  | 
CC(CN)Oc1ccc(F)c(C(=O)O)c1 (stereo not shown) [Compound 101] | 24% |  | 13 °C | 20% | 12% |  |  | 
NC1(COc2cccc(C(=O)O)c2)CC1 [Compound 121] | 99% | 256 g/ha | 11 °C |  |  |  |  | 
CCOC(=O)c1cccc(OCC(C)N)n1 (stereo not shown) [Compound 219] | 100% | 48 g/ha | 3 °C |  |  |  |  | 
